Experiments:
[1] = system: E. coli BW25113; assay: Minimum inhibitory concentration (MIC) of DOX for E. coli BW25113 ancestor and end-point isolates; assay type: cell-based
Description: Experimental protocol. Five populations of E. coli were adapted to DOX in flasks to identify the selection gradient for adaptation to DOX. On the first day, six different colonies were used to inoculate control and five populations containing fresh media. The growth media for E. coli was Lysogeny broth (LB; 10 g/l tryptone, 5 g/l yeast extract, 5 g/l sodium chloride). The following day, each population was transferred to fresh media containing 1 μg/ml DOX with 100-fold dilutions. The fresh media containing desired DOX concentration was prepared by appropriate dilution of DOX stock solution. The stock solution was prepared by dissolving DOX (Tokyo Chemical Industry Co., LTD, Japan) in water, followed by filter sterilization through a 0.22 μm filter (Millex-GP, Millipore, Bedford, MA). The following day, each population was transferred to three tubes containing 1×, 1.5×, and 2× of the current DOX concentration. Hereafter, each population with the best growth was transferred into three new tubes while the control population was propagated in fresh media until twice the DOX clinical breakpoint (16 μg/ml) was reached. In a similar way, on the first day of serial transfer of E. coli to DOX in microdroplets, four to six different colonies were used to inoculate control and three to five populations containing fresh media. The following day, the growth media containing a starting size of ˜2.6×10^6 cells/ml was prepared for each population through appropriate dilution of overnight culture. Fluorinated oil (Novec 7500, 3M, St Paul, MN) with 1.5 w/w % surfactants (Pico-Surf 1™, Sphere Fluidics, Cambridge, UK) was the continuous phase while the growth media containing E. coli was the dispersed phase. These prepared continuous and dispersed phases were injected into four to six microfluidic chips using twelve-multi channel syringe pumps (New Era Pump Systems, Farmingdale, NY) with determined flow rates. More than 800 μl droplets for each population were collected in either a 1.5 ml microfuge tube or a 50 ml tube for the incubation at 37° C. After incubation for 24 h, these droplets were chemically broken with a demulsifier (1H, 1H, 2H, 2H-Perfluorooctanol, >97%, Alfa Aesar, Ward Hill, MA). After OD measurement, cells were propagated by dilution in fresh growth media containing higher DOX concentrations until a concentration of 16 μg/ml. Experiment images were captured using a bright-field inverted microscope (Eclipse Ti2, Nikon, Japan) with a mounted high-speed camera (Phantom V7.2).
At the end of the experiment, individual end-point isolates were isolated randomly by streaking the entire population onto non-selective, nutrient-rich agar plates. End point isolates are defined as randomly selected, independent colonies derived from an evolved population. Since evolved populations are diverse, each end point isolate could potentially have different genotypes. A minimum of three end-point isolates was subjected to whole genome sequencing from each experimental evolution study. In addition, total genomic DNA for each evolved population was isolated and subjected to metagenomic analysis to identify the allelic frequency in the final populations (Dataset S1-S6). The populations were sequenced to achieve at least 100× coverage and a threshold of 5% was used to identify mutations. Both serial transfer and microdroplet populations identified the well-known adaptive alleles marR, acrR, rpsJ and envZ^32-35 as well as the movement of an insertion element IS186 into the upstream regulatory region of the gene encoding the Lon protease (FIG. 17). […] Both methods clearly implicated regulation of the AcrAB-TolC as the fundamental driver for DOX resistance, but there were interesting differences in the evolutionary trajectories identified.

[2] = system: P. aeruginosa PAO1; conditions: cited from earlier work
[3] = system: Enterobacter species; conditions: some Enterobacter species, after exposure to gradually increasing concentrations; cited from earlier work

C[C@H]1c2cccc(O)c2C(O)=C2C(=O)[C@]3(O)C(O)=C(C(N)=O)C(=O)[C@@H](N(C)C)[C@@H]3[C@@H](O)[C@@H]21 [DOX]
4 µg/mL: MIC of DOX ([1]; F (batch), isolate C1 (no drug control)) | MIC of DOX ([1]; F (batch), isolate C2 (no drug control)) | MIC of DOX ([1]; F (batch), isolate C3 (no drug control)) | MIC of DOX for the ancestor ([1]; ancestor E. coli BW25113) | MIC of DOX ([1]; microemulsion D1, isolate C1 (no drug control)) | MIC of DOX ([1]; microemulsion D1, isolate C2 (no drug control)) | MIC of DOX ([1]; microemulsion D1, isolate C3 (no drug control)) | MIC of DOX ([1]; microemulsion D2, isolate C1 (no drug control)) | MIC of DOX ([1]; microemulsion D2, isolate C2 (no drug control)) | MIC of DOX ([1]; microemulsion D2, isolate C3 (no drug control)) | MIC of DOX ([1]; microemulsion D3, isolate C1 (no drug control)) | MIC of DOX ([1]; microemulsion D3, isolate C2 (no drug control)) | MIC of DOX ([1]; microemulsion D3, isolate C3 (no drug control)) | MIC of DOX ([1]; microemulsion D4, isolate C1 (no drug control)) | MIC of DOX ([1]; microemulsion D4, isolate C2 (no drug control)) | MIC of DOX ([1]; microemulsion D4, isolate C3 (no drug control)) | MIC of DOX ([1]; microemulsion D5, isolate C1 (no drug control)) | MIC of DOX ([1]; microemulsion D5, isolate C2 (no drug control)) | MIC of DOX ([1]; microemulsion D5, isolate C3 (no drug control))
16 µg/mL: MIC of DOX ([1]; F (batch), end-point isolate 1-2) | MIC of DOX ([1]; F (batch), end-point isolate 1-3) | MIC of DOX ([1]; F (batch), end-point isolate 2-1) | MIC of DOX ([1]; F (batch), end-point isolate 2-2) | MIC of DOX ([1]; F (batch), end-point isolate 3-1) | MIC of DOX ([1]; F (batch), end-point isolate 3-2) | MIC of DOX ([1]; F (batch), end-point isolate 3-3) | MIC of DOX ([1]; F (batch), end-point isolate 4-1) | MIC of DOX ([1]; F (batch), end-point isolate 4-2) | MIC of DOX ([1]; F (batch), end-point isolate 5-1) | MIC of DOX ([1]; microemulsion D1, end-point isolate 2-1) | MIC of DOX ([1]; microemulsion D1, end-point isolate 2-2) | MIC of DOX ([1]; microemulsion D1, end-point isolate 2-3) | MIC of DOX ([1]; microemulsion D1, end-point isolate 3-1) | MIC of DOX ([1]; microemulsion D1, end-point isolate 3-2) | MIC of DOX ([1]; microemulsion D1, end-point isolate 3-3) | MIC of DOX ([1]; microemulsion D1, end-point isolate 4-1) | MIC of DOX ([1]; microemulsion D1, end-point isolate 4-3) | MIC of DOX ([1]; microemulsion D1, end-point isolate 5-1) | MIC of DOX ([1]; microemulsion D1, end-point isolate 5-2) | MIC of DOX ([1]; microemulsion D1, end-point isolate 5-3) | MIC of DOX ([1]; microemulsion D2, end-point isolate 1-1) | MIC of DOX ([1]; microemulsion D2, end-point isolate 1-2) | MIC of DOX ([1]; microemulsion D2, end-point isolate 1-3) | MIC of DOX ([1]; microemulsion D2, end-point isolate 2-1) | MIC of DOX ([1]; microemulsion D2, end-point isolate 2-2) | MIC of DOX ([1]; microemulsion D2, end-point isolate 2-3) | MIC of DOX ([1]; microemulsion D2, end-point isolate 3-1) | MIC of DOX ([1]; microemulsion D2, end-point isolate 3-2) | MIC of DOX ([1]; microemulsion D2, end-point isolate 3-3) | MIC of DOX ([1]; microemulsion D2, end-point isolate 4-1) | MIC of DOX ([1]; microemulsion D2, end-point isolate 4-2) | MIC of DOX ([1]; microemulsion D2, end-point isolate 4-3) | MIC of DOX ([1]; microemulsion D2, end-point isolate 5-1) | MIC of DOX ([1]; microemulsion D2, end-point isolate 5-2) | MIC of DOX ([1]; microemulsion D2, end-point isolate 5-3) | MIC of DOX ([1]; microemulsion D3, end-point isolate 1-1) | MIC of DOX ([1]; microemulsion D3, end-point isolate 1-2) | MIC of DOX ([1]; microemulsion D3, end-point isolate 1-3) | MIC of DOX ([1]; microemulsion D3, end-point isolate 2-2) | MIC of DOX ([1]; microemulsion D3, end-point isolate 3-1) | MIC of DOX ([1]; microemulsion D3, end-point isolate 3-3) | MIC of DOX ([1]; microemulsion D3, end-point isolate 4-1) | MIC of DOX ([1]; microemulsion D3, end-point isolate 4-2) | MIC of DOX ([1]; microemulsion D3, end-point isolate 4-3) | MIC of DOX ([1]; microemulsion D3, end-point isolate 5-1) | MIC of DOX ([1]; microemulsion D3, end-point isolate 5-2) | MIC of DOX ([1]; microemulsion D3, end-point isolate 5-3) | MIC of DOX ([1]; microemulsion D4, end-point isolate 4-1) | MIC of DOX ([1]; microemulsion D4, end-point isolate 4-2) | MIC of DOX ([1]; microemulsion D4, end-point isolate 4-3) | MIC of DOX ([1]; microemulsion D4, end-point isolate 5-1) | MIC of DOX ([1]; microemulsion D4, end-point isolate 5-2) | MIC of DOX ([1]; microemulsion D5, end-point isolate 1-1) | MIC of DOX ([1]; microemulsion D5, end-point isolate 1-3) | MIC of DOX ([1]; microemulsion D5, end-point isolate 2-2) | MIC of DOX ([1]; microemulsion D5, end-point isolate 2-3) | MIC of DOX ([1]; microemulsion D5, end-point isolate 3-2)
>16 µg/mL: MIC of DOX ([1]; F (batch), end-point isolate 1-1) | MIC of DOX ([1]; F (batch), end-point isolate 2-3) | MIC of DOX ([1]; F (batch), end-point isolate 4-3) | MIC of DOX ([1]; F (batch), end-point isolate 5-2) | MIC of DOX ([1]; F (batch), end-point isolate 5-3) | MIC of DOX ([1]; microemulsion D1, end-point isolate 4-2) | MIC of DOX ([1]; microemulsion D5, end-point isolate 1-2) | MIC of DOX ([1]; microemulsion D5, end-point isolate 2-1) | MIC of DOX ([1]; microemulsion D5, end-point isolate 3-1) | MIC of DOX ([1]; microemulsion D5, end-point isolate 3-3)
8 µg/mL: MIC of DOX ([1]; microemulsion D1, end-point isolate 1-1) | MIC of DOX ([1]; microemulsion D1, end-point isolate 1-2) | MIC of DOX ([1]; microemulsion D1, end-point isolate 1-3) | MIC of DOX ([1]; microemulsion D3, end-point isolate 2-1) | MIC of DOX ([1]; microemulsion D3, end-point isolate 2-3) | MIC of DOX ([1]; microemulsion D3, end-point isolate 3-2) | MIC of DOX ([1]; microemulsion D4, end-point isolate 5-3)

O=C(N[C@H](CO)[C@H](O)c1ccc([N+](=O)[O-])cc1)C(Cl)Cl [chloramphenicol]
32 µg/mL: MIC [2]

benzalkonium chloride
5-300 fold: increase in minimum inhibitory concentration [3]

Reference: patent US20230295560A1, “SYNTHETIC ECOLOGIES FOR DRUG DISCOVERY” (priority 2021, published 2023)
